From patent publication US20250108038A1 (priority 2023, published 2025)
“And” between values parts separate entries of the source, which are not always exact repeats. Equal entries are not always repeated.

Test: Pharmacokinetics after single oral administration to beagle dogs;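 for AUC0-inf of Compound A (as titled): compound A is measured in plasma as a metabolite of the dosed analog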;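 for AUC0-last of Compound A (as titled): compound A is measured in plasma as a metabolite of the dosed analog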;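 for T1/2 of Compound A (as titled): compound A is measured in plasma as a metabolite of the dosed analog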;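 for Tlast of Compound A (as titled): compound A is measured in plasma as a metabolite of the dosed analog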
Type: in vivo
Conditions: for plasma concentration of Compound I-17/I-19: single PO 10 mg/kg; for plasma concentration of Compound I-17/I-19 (as titled): single PO 80 mg/kg (as titled)
Description: The concentrations of the analytes in the plasma were quantified by liquid chromatography tandem mass spectrometry (LC-MS/MS).
The bioanalytical assay provided a lower limit of quantification (LLOQ) of 1.0 ng/mL and an upper limit of quantification (ULOQ) of 3000 ng/mL for all the analytes. The data of plasma concentration vs. time were analyzed using Phoenix WinNonlin 8.3 to determine the PK properties of the analytes.
The test articles were administered orally by gavage. The nominal dose volume was 5 mL/kg for both analogs.
The observation included appearance, behavior, morbidity and mortality.
Approximately 0.5 mL blood was collected at each scheduled time point from the peripheral veins.
The plasma samples were placed in microcentrifuge tubes and stored at −70+10° C. until analysis.

[1] = after single PO 10 mg/kg of Compound I-17/I-19, female individual
[2] = after single PO 10 mg/kg of Compound I-17/I-19, female individual, 10 mg/kg
[3] = after single PO 10 mg/kg of Compound I-17/I-19, female mean
[4] = after single PO 10 mg/kg of Compound I-17/I-19, male individual, 10 mg/kg
[5] = after single PO 10 mg/kg of Compound I-17/I-19, male mean
[6] = after single PO 80 mg/kg (so in the source) of Compound I-17/I-19, female individual, 80 mg/kg
[7] = after single PO 80 mg/kg (so in the source) of Compound I-17/I-19, female mean
[8] = after single PO 80 mg/kg (so in the source) of Compound I-17/I-19, female mean, 80 mg/kg
[9] = after single PO 80 mg/kg (so in the source) of Compound I-17/I-19, male individual
[10] = after single PO 80 mg/kg (so in the source) of Compound I-17/I-19, male individual, 80 mg/kg
[11] = after single PO 80 mg/kg (so in the source) of Compound I-17/I-19, male mean
[12] = oral 10 mg/kg, female dogs, 10 mg/kg

Structure (SMILES): CC(C)/C=C/COC1(c2ccc(Cl)cc2)c2ccccc2C2=NCCN21 (stereo not shown) [Compound I-17]
- T1/2 of Compound A (as titled) [1]: 5.87 h
- Tlast of Compound A (as titled) [1]: 24.0 h
- AUC0-inf of Compound A (as titled) [2]: 756 ng·h/mL and 946 ng·h/mL
- AUC0-last of Compound A (as titled) [2]: 736 ng·h/mL and 915 ng·h/mL
- Cmax of Compound A (as titled) [2]: 293 ng/mL and 252 ng/mL
- MRT0-inf of Compound A (as titled) [2]: 4.62 h and 5.07 h
- MRT0-last of Compound A (as titled) [2]: 3.88 h and 4.14 h
- T1/2 of Compound A (as titled) [2]: 6.33 h
- Tmax of Compound A (as titled) [2]: 1.00 h and 2.00 h
- AUC0-inf of Compound A (as titled) [3]: 851 ng·h/mL
- AUC0-last of Compound A (as titled) [3]: 826 ng·h/mL
- Cmax of Compound A (as titled) [3]: 272 ng/mL
- MRT0-inf of Compound A (as titled) [3]: 4.84 h
- MRT0-last of Compound A (as titled) [3]: 4.01 h
- T1/2 of Compound A (as titled) [3]: 6.10 h
- Tlast of Compound A (as titled) [3]: 24.0 h
- Tmax of Compound A (as titled) [3]: 1.50 h
- Tmax of Compound A (as titled) (after single PO 10 mg/kg of Compound I-17/I-19, male individual): 1.00 h
- AUC0-inf of Compound A (as titled) [4]: 229 ng·h/mL and 522 ng·h/mL
- AUC0-last of Compound A (as titled) [4]: 209 ng·h/mL and 513 ng·h/mL
- Cmax of Compound A (as titled) [4]: 89.0 ng/mL and 212 ng/mL
- MRT0-inf of Compound A (as titled) [4]: 3.07 h and 3.86 h
- MRT0-last of Compound A (as titled) [4]: 2.15 h and 3.33 h
- T1/2 of Compound A (as titled) [4]: 3.08 h and 5.70 h
- Tlast of Compound A (as titled) [4]: 8.00 h and 24.0 h
- AUC0-inf of Compound A (as titled) [5]: 376 ng·h/mL
- AUC0-last of Compound A (as titled) [5]: 361 ng·h/mL
- Cmax of Compound A (as titled) [5]: 151 ng/mL
- MRT0-inf of Compound A (as titled) [5]: 3.46 h
- MRT0-last of Compound A (as titled) [5]: 2.74 h
- T1/2 of Compound A (as titled) [5]: 4.39 h
- Tlast of Compound A (as titled) [5]: 16.0 h
- Tmax of Compound A (as titled) [5]: 1.00 h
- T1/2 of Compound A (after single PO 80 mg/kg (so in the source) of Compound I-17/I-19, female individual): 24.0 h
- Cmax of Compound A [6]: 4.00 ng/mL and 2.00 ng/mL
- MRT0-inf of Compound A [6]: 0.989 h and 0.999 h
- MRT0-last of Compound A [6]: 11.2 h and 11.5 h
- Tmax of Compound A [6]: 7.07 h and 7.31 h
- MRT0-inf of Compound A [7]: 0.994 h
- Tlast of Compound A [7]: 323 h
- AUC0-last of Compound A [8]: 323 ng·h/mL
- MRT0-last of Compound A [8]: 11.3 h
- Tlast of Compound A [9]: 24.0 h
- Tmax of Compound A [9]: 2.00 h
- AUC0-inf of Compound A [10]: 278 ng·h/mL and 298 ng·h/mL
- AUC0-last of Compound A [10]: 258 ng·h/mL and 278 ng·h/mL
- Cmax of Compound A [10]: 25.9 ng/mL and 31.6 ng/mL
- MRT0-inf of Compound A [10]: 9.72 h and 9.19 h
- MRT0-last of Compound A [10]: 7.90 h and 7.43 h
- T1/2 of Compound A [10]: 6.33 h and 6.23 h
- AUC0-inf of Compound A [11]: 288 ng·h/mL
- AUC0-last of Compound A [11]: 268 ng·h/mL
- Cmax of Compound A [11]: 28.8 ng/mL
- MRT0-inf of Compound A [11]: 9.45 h
- MRT0-last of Compound A [11]: 7.66 h
- T1/2 of Compound A [11]: 6.28 h
- Tlast of Compound A [11]: 24.0 h
- Tmax of Compound A [11]: 2.00 h
- Cmax of the analog (Compound I-17/I-19) (oral 10 mg/kg, female dogs): 272 ng/mL
- T1/2 of the analog (Compound I-17/I-19) (oral 10 mg/kg, female dogs): 6.10 hours
- Tmax of the analog (Compound I-17/I-19) (oral 10 mg/kg, female dogs): 1.5 hour
- AUC0-last of the analog (Compound I-17/I-19) [12]: 826 ng·h/mL and 836 ng·h/mL
- MRT0-last of the analog (Compound I-17/I-19) [12]: 4.01 hours and 2.47 hours
- Cmax of the analog (Compound I-17/I-19) (oral 10 mg/kg, male dogs): 151 ng/mL
- T1/2 of the analog (Compound I-17/I-19) (oral 10 mg/kg, male dogs): 4.39 hours
- Tmax of the analog (Compound I-17/I-19) (oral 10 mg/kg, male dogs): 1 hour
- MRT0-last of the analog (Compound I-17/I-19) (oral 10 mg/kg, male dogs, 10 mg/kg): 2.74 hours and 2.30 hours
- plasma concentration of Compound I-17/I-19 (0.500 h, female individual, 10 mg/kg): 128 ng/mL and 106 ng/mL
- plasma concentration of Compound I-17/I-19 (0.500 h, female mean): 117 ng/mL
- plasma concentration of Compound I-17/I-19 (0.500 h, male individual, 10 mg/kg): 73.5 ng/mL and 176 ng/mL
- plasma concentration of Compound I-17/I-19 (0.500 h, male mean): 125 ng/mL
- plasma concentration of Compound I-17/I-19 ([…] h, female individual, 10 mg/kg): 293 ng/mL and 236 ng/mL
- plasma concentration of Compound I-17/I-19 ([…] h, female mean): 265 ng/mL
- plasma concentration of Compound I-17/I-19 ([…] h, male individual, 10 mg/kg): 89.0 ng/mL and 212 ng/mL
- plasma concentration of Compound I-17/I-19 ([…] h, male mean): 151 ng/mL
- plasma concentration of Compound I-17/I-19 (2.00 h, female individual, 10 mg/kg): 164 ng/mL and 252 ng/mL
- plasma concentration of Compound I-17/I-19 (2.00 h, female mean): 208 ng/mL
- plasma concentration of Compound I-17/I-19 (2.00 h, male individual, 10 mg/kg): 51.0 ng/mL and 101 ng/mL
- plasma concentration of Compound I-17/I-19 (2.00 h, male mean): 75.8 ng/mL
- plasma concentration of Compound I-17/I-19 (4.00 h, female individual, 10 mg/kg): 43.0 ng/mL and 77.4 ng/mL
- plasma concentration of Compound I-17/I-19 (4.00 h, female mean): 60.2 ng/mL
- plasma concentration of Compound I-17/I-19 (4.00 h, male individual, 10 mg/kg): 11.2 ng/mL and 26.5 ng/mL
- plasma concentration of Compound I-17/I-19 (4.00 h, male mean): 18.9 ng/mL
- plasma concentration of Compound I-17/I-19 (6.00 h, female individual, 10 mg/kg): 20.8 ng/mL and 28.2 ng/mL
- plasma concentration of Compound I-17/I-19 (6.00 h, female mean): 24.5 ng/mL
- plasma concentration of Compound I-17/I-19 (6.00 h, male individual, 10 mg/kg): 6.77 ng/mL and 10.2 ng/mL
- plasma concentration of Compound I-17/I-19 (6.00 h, male mean): 8.47 ng/mL
- plasma concentration of Compound I-17/I-19 (8.00 h, female individual, 10 mg/kg): 13.6 ng/mL and 15.0 ng/mL
- plasma concentration of Compound I-17/I-19 (8.00 h, female mean): 14.3 ng/mL
- plasma concentration of Compound I-17/I-19 (8.00 h, male individual, 10 mg/kg): 4.57 ng/mL and 8.39 ng/mL
- plasma concentration of Compound I-17/I-19 (8.00 h, male mean): 6.48 ng/mL
- plasma concentration of Compound I-17/I-19 (24.0 h, female individual, 10 mg/kg): 2.29 ng/mL and 3.32 ng/mL
- plasma concentration of Compound I-17/I-19 (24.0 h, female mean): 2.81 ng/mL
- plasma concentration of Compound I-17/I-19 (24.0 h, male individual): 1.16 ng/mL
- plasma concentration of Compound I-17/I-19 (24.0 h, male individual, 10 mg/kg): BQL
- plasma concentration of Compound I-17/I-19 (as titled) (0.500 h, female individual): 5.44 ng/mL
- plasma concentration of Compound I-17/I-19 (as titled) (0.500 h, female individual, 80 mg/kg): BQL
- plasma concentration of Compound I-17/I-19 (as titled) (0.500 h, male individual, 80 mg/kg): 7.45 ng/mL and 13.8 ng/mL
- plasma concentration of Compound I-17/I-19 (as titled) (0.500 h, male mean): 10.6 ng/mL
- plasma concentration of Compound I-17/I-19 (as titled) (2.00 h, female individual, 80 mg/kg): 33.0 ng/mL and 26.4 ng/mL
- plasma concentration of Compound I-17/I-19 (as titled) (2.00 h, female mean): 29.7 ng/mL
- plasma concentration of Compound I-17/I-19 (as titled) (2.00 h, male individual, 80 mg/kg): 25.9 ng/mL and 31.6 ng/mL
- plasma concentration of Compound I-17/I-19 (as titled) (2.00 h, male mean): 28.8 ng/mL
- plasma concentration of Compound I-17/I-19 (as titled) (4.00 h, female individual, 80 mg/kg): 35.5 ng/mL and 25.4 ng/mL
- plasma concentration of Compound I-17/I-19 (as titled) (4.00 h, female mean): 30.5 ng/mL
- plasma concentration of Compound I-17/I-19 (as titled) (4.00 h, male individual, 80 mg/kg): 25.6 ng/mL and 29.0 ng/mL
- plasma concentration of Compound I-17/I-19 (as titled) (4.00 h, male mean): 27.3 ng/mL
- plasma concentration of Compound I-17/I-19 (as titled) (6.00 h, female individual, 80 mg/kg): 22.9 ng/mL and 18.1 ng/mL
- plasma concentration of Compound I-17/I-19 (as titled) (6.00 h, female mean): 20.5 ng/mL
- plasma concentration of Compound I-17/I-19 (as titled) (6.00 h, male individual, 80 mg/kg): 14.2 ng/mL and 16.7 ng/mL
- plasma concentration of Compound I-17/I-19 (as titled) (6.00 h, male mean): 15.4 ng/mL
- plasma concentration of Compound I-17/I-19 (as titled) (8.00 h, female individual, 80 mg/kg): 21.8 ng/mL and 14.4 ng/mL
- plasma concentration of Compound I-17/I-19 (as titled) (8.00 h, female mean): 18.1 ng/mL
- plasma concentration of Compound I-17/I-19 (as titled) (8.00 h, male individual, 80 mg/kg): 14.9 ng/mL and 13.7 ng/mL
- plasma concentration of Compound I-17/I-19 (as titled) (8.00 h, male mean): 14.3 ng/mL
- plasma concentration of Compound I-17/I-19 (as titled) (24.0 h, female individual, 80 mg/kg): 4.17 ng/mL and 3.23 ng/mL
- plasma concentration of Compound I-17/I-19 (as titled) (24.0 h, female mean): 3.70 ng/mL
- plasma concentration of Compound I-17/I-19 (as titled) (24.0 h, male individual, 80 mg/kg): 2.20 ng/mL and 2.28 ng/mL
- plasma concentration of Compound I-17/I-19 (as titled) (24.0 h, male mean): 2.24 ng/mL
- plasma concentration of Compound I-17/I-19 (as titled) ([…] h, female mean): 15.9 ng/mL
- plasma concentration of Compound I-17/I-19 (as titled) ([…] h, male mean): 22.2 ng/mL
